# Columns and labels:
# AsPC1 cells = test: AsPC1 cell xenograft model: fibrosis, cancer cells and mouse weight; type: in vivo, nude mice; settings: for fibrosis (collagen parts stained in blue color in cancer tissue): administration starting 10 days after inoculation, PEP1 2 mg/kg once a day s.c.
# Experimental: To verify in vivo anticancer effects of PEP1 and gemcitabine on pancreatic cancer, xenograft experiments were performed using AsPC1 cell lines. A xenografting method used herein is as follows.
# Reagents and materials used for the experiment are as follows. After powdery PEP1 was dissolved in 0.2 μm filtered sterile water, aliquots were stored at −70° C. and then dissolved before use, and gemcitabine was dissolved in 100% saline. 5-fluorouracil was dissolved in DMSO.
# AsPC1 cell lines (Cell #6×10^5 cells/[…]), which were cell lines used in the experiment, are human pancreatic cancer metastatic cells purchased from the American Type Cell Culture (ATCC, Rockville, Md.).
# AsPC1 cells were injected into each of nude mouse experiment groups (1) to (4).
# The cultured 5×10^6 AsPC1 cells were subcutaneously injected into nude mice (BALB/c-nu/nu nude mice, purchased from Joongang Laboratory animal, Seoul, Korea). The injection was performed until cancer was grown to a size of 100 mm^3 (about 10 days). Following cancer engraftment, the mice were divided into groups, each group having a similar average weight, and then either or both of gemcitabine and Pep1 were subcutaneously and intraperitoneally injected into the mice according to the conditions for each of the four experiment groups below (refer to FIG. 1). Cancer volume was measured with calipers and calculated by the following formula [width^2×length×0.52].
# After grafting, either or both of Pep1 and gemcitabine were administered to each of the four experiment groups.
# (1) AsPC1 grafting control
# (2) AsPC1 grafting+PEP1 2 mg/kg (once a day, s.c) administered group
# After then, weight of each mouse was quantified every time. Also, cancer tissue sample preparation and cell proliferation marker (PCNA)/apoptosis marker (TUNEL) staining were performed.
# For analyses of experiment results, averages between several experiment groups was assessed by a student's t-test.
# fibronectin (FN) = test: TGF-β inhibition in HepG2 cell lines, qRT-PCR of fibronectin mRNA; type: cell-based, human; settings: HepG2, TGF-β1 treated; positive control
# Experimental: (§1) To verify the TGF-β inhibitory effect of PEP1, which is considered as the main cause of fibrosis, an experiment for confirming a TGF-β signaling inhibiting action in HepG2 cell lines was performed as follows.
# (§2) Reagents and materials used in the experiment are as follows. After powdery PEP1 was dissolved in 0.2 μm filtered sterile water, aliquots were stored at −70° C. and then dissolved before use. As a cell line, HepG2 (ATCC HB-8065; American Type Culture Collection) was used, and recombinant human TGF-β1 was dissolved in 4 mM HCl, thereby preparing a 10 μg/mL stock. SB431542 (Sigma) used as a positive control was prepared in a 10 mM stock.
# (§3) 2×10^6 HepG2 cells (ATCC HB-8065) were seeded into a 60 mm petri-dish and cultured in a CO2 incubator for 16 hours. Afterward, media were transferred to serum-free media (SFM), and then the cells were further cultured for 24 hours. […]
# (§4) RNA was extracted from peptide-treated cells using an RNEASY® Plus Mini Kit (Qiagen) (RNA extraction kit) according to the manufacture's protocol. The extracted RNA was quantified, and then cDNA was synthesized from 1 μg of total RNA using a reverse transcription system (Promega). […] As TGF-β-related biomarkers, mRNA expression of fibronectin (FN), Smad2 and Smad4 were analyzed, and as a reference gene, GAPDH was used. […]
# Smad2 = test: TGF-β inhibition in HepG2 cell lines, qRT-PCR of Smad2 mRNA; type: cell-based, human; settings: HepG2, 10 ng/ml TGF-β1; PEP1 1, 5 and 10 μM; 48-hour culture; reference gene GAPDH
# Experimental: as §1, §2, §3, §4
# [1] = test system: Normal human epidermal keratinocytes (NHEKs); test: Cell differentiation of radiation-exposed NHEK cell lines; type: cell-based; settings: 1 mM of PEP1, 6 Gy ionizing radiation, cultured 10 days
# Experimental: To confirm PEP1 effects on fibrosis induced by radiation exposure for anticancer treatment and other tumor treatments, an experiment for confirming a TGF-β inhibitory effect of PEP1 in radiation-exposed NHEKs was performed.
# (§5) PEP1 synthesized according to Example 1 and a placebo (sham) as a control were prepared. Normal human epidermal keratinocytes (NHEKs) were cultured in a monolayer to be used for a radiation exposure experiment. For the radiation exposure experiment, ionized radiation was used at an intensity of 6 Gy.
# To examine the cell differentiation of NHEK cell lines according to radiation exposure, NHEKs were treated with each of the placebo and 1 mM of PEP1, and then divided into radiation-exposed groups and non-exposed groups, followed by culturing for 10 days (refer to FIG. 13).
# N-Cad = test: Biomarker expression in radiation-exposed NHEKs: N-Cad; type: cell-based, human; settings: 1 mM of PEP1, after radiation exposure (6 Gy)
# Experimental: as §5
# (§6) Also, to examine the change in expression levels of biomarkers for the NHEK cell lines due to the radiation exposure, the NHEKs were treated with each of the placebo and 1 mM of PEP1 and divided into non-exposed groups (−) and radiation-exposed groups (+), and then expression levels of the biomarkers were examined at day 1 and day 10 after the radiation exposure (refer to FIG. 14). In measurement of the expression levels of the biomarkers, GAPDH was used as a reference control.
# (§7) Western blotting procedures were as follows. Peptide-treated cells were washed with PBS twice, collected into a 1.5 mL centrifuge tube using a cell scraper, followed by centrifugation (1,000 rpm, 4° C., 2 minutes). After removal of the obtained supernatant, 100 μL of RIPA buffer was added to the NHEKs. […]
# (§8) […] of protein was transferred to a PVDF membrane (Millipore) by 8% sodium dodecyl sulfate-polyacrylamide gel electrophoresis (SDS-PAGE). […] Afterward, ECL detection (Amersham Pharmacia Biotech) was performed, and obtained images were analyzed using an image analyzer (GE Healthcare, IMAGEQUANT™ LAS 4000).
# p63 = test: Biomarker expression in radiation-exposed NHEKs: p63; type: cell-based, human; settings: 1 mM of PEP1, 10 days after radiation exposure (6 Gy)
# Experimental: as §5, §6, §7, §8
# P-Akt = test: Biomarker expression in radiation-exposed NHEKs: P-Akt; type: cell-based, human; settings: 1 mM of PEP1, after radiation exposure (6 Gy)
# Experimental: as §5, §6, §7, §8
# dermal fibrosis model = test: In vivo dermal fibrosis model, bleomycin-induced scleroderma; settings: C3H mice, PEP1 50 mg/kg intraperitoneally, bleomycin subcutaneously for 24 to 28 days
# Experimental: Meanwhile, experimental animals were divided into two animal models. The first model was an oral mucositis model, which was prepared by inducing an ulcer to the tongue of each C3H mouse by exposing the head and the neck to radiation (6 Gy, IR) for 5 straight days. The second model is a dermal fibrosis model, which was prepared by inducing local scleroderma by subcutaneously injecting 0.1 cc of a dilution of bleomycin which was known as the cause of pulmonary fibrosis in a 0.9% NaCl aqueous solution at a concentration of 0.5 mg/ml once a day for 24 to 28 days. Meanwhile, in the second dermal fibrosis model, C3H mice were divided into groups, each intraperitoneally treated with a placebo or PEP1 to give the final dose of 50 mg/kg, and subcutaneously treated with bleomycin at the concentrations mentioned in the preparation of the experimental animals for 24 to 28 days. 28 days later, the mice were sacrificed to detect scleroderma, followed by an experiment for examining fibrosis diffusion using Masson's trichrome staining.
# Smad4 = test: TGF-β inhibition in HepG2 cell lines, qRT-PCR of Smad4 mRNA; type: cell-based, human; settings: HepG2, 10 ng/ml TGF-β1; PEP1 1, 5 and 10 μM; 48-hour culture; reference gene GAPDH
# Experimental: as §1, §2, §3, §4
# GRHL2 = test: Biomarker expression in radiation-exposed NHEKs: GRHL2; type: cell-based, human; settings: 1 mM of PEP1, 10 days after radiation exposure (6 Gy)
# Experimental: as §5, §6, §7, §8
# oral mucositis model = test: In vivo oral mucositis model, radiation-induced tongue ulcer; settings: C3H mice, PEP1 1 mg/kg intraperitoneally, 6 Gy IR for five consecutive days
# Experimental: (§9) PEP1 synthesized according to Example 1 and a placebo (sham) used as a control were prepared. NHEKs were cultured in a monolayer to prepare an in vitro radiation exposure experiment. For in vitro, in situ, and in vivo radiation exposure experiments, ionized radiation was used at various intensities ranging from 0 to 10 Gy (0, 2, 4, 6, 8, and 10 Gy).
# Meanwhile, experimental animals were divided into two animal models. The first model was an oral mucositis model, which was prepared by inducing an ulcer to the tongue of each C3H mouse by exposing the head and the neck to radiation (6 Gy, IR) for 5 straight days. The second model is a dermal fibrosis model, which was prepared by inducing local scleroderma by subcutaneously injecting 0.1 cc of a dilution of bleomycin which was known as the cause of pulmonary fibrosis in a 0.9% NaCl aqueous solution at a concentration of 0.5 mg/ml once a day for 24 to 28 days.
# For the in vivo experiment, first, in the first oral mucositis model, C3H mice were divided into groups, each intraperitoneally treated with a placebo or PEP1 to give a final dose of 1 mg/kg and exposed to radiation (6 Gy, IR) for five consecutive days to induce a tongue ulcer corresponding to an oral mucositis. Ten days later, the mice were sacrificed to collect tongue tissue, which was stained with toluidine blue and by H&E staining, to perform biopsy. […]
# NHEK cell lines = test: In vitro radiation-induced premature senescence (RIPS) marker expression in NHEKs; type: cell-based, human; settings: radiation 0 to 10 Gy, qRT-PCR, western blotting, immunofluorescence staining
# Experimental: as §9
# The expression level of each marker was measured using qRT-PCR, western blotting, and immunofluorescence staining. For the measurement of the levels, senescence-associated β-galactosidase (SA β-Gal), p16INK4A, p-p53Ser15, p-ATM, γ-H2AX, 53BP1,H3K9me3, HP1γ, and HMGA2 were used as markers.
# [2] = nude mice inoculated with AsPC1 cells, gemcitabine 125 mg/kg once every third day i.p.
Compound,"weight of a mouse (AsPC1 cells; day 20 after the administration, compared between the four experiment groups)",fibrosis (collagen parts stained in blue color in cancer tissue) (AsPC1 cells; [2]),cancer cells (parts stained in red color) (AsPC1 cells; [2]),fibronectin inhibition ratio (fibronectin (FN)),Smad2 mRNA expression (Smad2),cell differentiation (fibrosis development) after radiation exposure [1],N-Cad expression level (N-Cad),p63 expression level (p63),P-Akt expression level (degree of cell survival) (P-Akt),"defensive effect against induction of tissue fibrosis, indicated by biopsy (dermal fibrosis model)",Smad4 mRNA expression (Smad4),GRHL2 expression level (GRHL2),"defensive effect against exposure to radiation, indicated by biopsy (oral mucositis model)","radiation-induced premature senescence (RIPS), indicated by marker expression (NHEK cell lines)"
Nc1ccn([C@@H]2O[C@H](CO)[C@@H](O)C2(F)F)c(=O)n1 [gemcitabine],the smallest,fibrosis was considerably developed,cancer cells were killed,,,,,,,,,,,
NC(=O)c1ccc(-c2nc(-c3ccc4c(c3)OCO4)c(-c3ccccn3)[nH]2)cc1 [SB431542],,,,60.7%,,,,,,,,,,
"EARPALLTSRLRFIPK (listed as Homo sapiens) [PEP1, telomerase-derived peptide, which consists of 16 amino acids; position [611-626] on telomerase]",,fibrosis was considerably inhibited,,,concentration-dependently inhibited,hardly showed differentiation,decreased,increased,increased,defensive effects,concentration-dependently inhibited,increased,defensive effects,RIPS inhibitory effect
